How the values were obtained:
[1] = biological target: T1, Coagulation factor VII (Homo sapiens, UniProt P08709); assay: In vitro inhibition of human coagulation factor VIIa
T1 sequence (P08709 whole entry): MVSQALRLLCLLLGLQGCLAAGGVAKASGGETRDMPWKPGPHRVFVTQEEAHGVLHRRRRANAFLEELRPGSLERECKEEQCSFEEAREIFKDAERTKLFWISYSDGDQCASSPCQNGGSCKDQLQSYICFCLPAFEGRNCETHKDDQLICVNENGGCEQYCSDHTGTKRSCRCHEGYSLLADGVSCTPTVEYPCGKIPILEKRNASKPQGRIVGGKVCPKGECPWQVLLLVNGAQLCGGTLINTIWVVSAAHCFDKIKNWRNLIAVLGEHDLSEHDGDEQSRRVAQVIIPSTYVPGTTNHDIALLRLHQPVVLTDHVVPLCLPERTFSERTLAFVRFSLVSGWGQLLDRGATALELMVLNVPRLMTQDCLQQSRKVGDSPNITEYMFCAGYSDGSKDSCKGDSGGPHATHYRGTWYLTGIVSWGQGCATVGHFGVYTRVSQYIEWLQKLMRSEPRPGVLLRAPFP

[2] = biological target: Prothrombin (Homo sapiens, UniProt P00734); assay: In vitro inhibition of thrombin
[3] = biological target: Coagulation factor X (Homo sapiens, UniProt P00742); assay: In vitro inhibition of coagulation factor X
Chain of Coagulation factor X (P00742 41-179 limits assumed): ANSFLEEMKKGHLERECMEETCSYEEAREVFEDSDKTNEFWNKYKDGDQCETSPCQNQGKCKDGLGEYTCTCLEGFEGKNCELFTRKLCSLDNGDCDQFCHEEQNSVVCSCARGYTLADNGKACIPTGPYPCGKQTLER
Chain of Coagulation factor X (P00742 235-488 limits assumed): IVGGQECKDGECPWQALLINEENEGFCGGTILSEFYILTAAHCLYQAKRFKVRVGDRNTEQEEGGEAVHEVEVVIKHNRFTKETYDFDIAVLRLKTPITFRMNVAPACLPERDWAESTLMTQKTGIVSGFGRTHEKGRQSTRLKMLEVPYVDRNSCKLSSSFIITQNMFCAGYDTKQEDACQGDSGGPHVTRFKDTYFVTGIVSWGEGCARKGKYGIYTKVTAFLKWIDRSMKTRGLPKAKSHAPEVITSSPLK

| Structure (SMILES) | Ki [1] | Ki [2] | Ki [3] |
| --- | --- | --- | --- |
| CC(NC(=O)CNC(=O)Nc1ccc(C(=N)N)cc1)c1ccc(OCc2ccccc2)cc1 (stereo not given) | 0.133 µM | – | – |
| C[C@@H](NC(=O)CNC(=O)Nc1ccc(C(=N)N)cc1)c1ccc2ccccc2c1 | 7 µM | – | – |
| CC(NC(=O)CNC(=O)Nc1ccc(C(=N)N)cc1)c1ccc(Cc2ccccc2)cc1 (stereo not given) | 0.19 µM | – | – |
| C[C@H](NC(=O)CNC(=O)Nc1ccc(C(=N)N)cc1)c1ccc(Br)cc1 | 0.156 µM | 6.76 µM | > 10 µM |
| CC(NC(=O)CNC(=O)Nc1ccc(C(=N)N)cc1)c1ccc(Oc2ccccc2)cc1 (stereo not given) | 0.078 µM | 9.1 µM | > 10 µM |
| CC(=O)Nc1ccc(C(C)NC(=O)CNC(=O)Nc2ccc(C(=N)N)cc2)cc1 (stereo not given) | 0.196 µM | > 50 µM | > 10 µM |
| CC(NC(=O)CNC(=O)Nc1ccc(C(=N)N)cc1)c1ccc(N2CCOCC2)c(C(F)(F)F)c1 (stereo not given) | 0.03 µM | 1.9 µM | > 10 µM |
| CC(NC(=O)CNC(=O)Nc1ccc(C(=N)N)cc1)c1ccc(NC(=O)C2CC2)cc1 (stereo not given) | 0.047 µM | 14.5 µM | > 10 µM |
| CC(NC(=O)CNC(=O)Nc1ccc(C(=N)N)cc1)c1ccc(Cl)c(Cl)c1 (stereo not given) | 0.077 µM | – | – |
| CC(NC(=O)CNC(=O)Nc1ccc(C(=N)N)cc1)c1ccc(N2CCOCC2)c(Br)c1 (stereo not given) | 0.015 µM | 0.65 µM | > 10 µM |
| CC(NC(=O)CNC(=O)Nc1ccc(C(=N)N)cc1)c1cccc(OCc2ccccc2)c1 (stereo not given) | 0.256 µM | – | – |
| Cc1cccc(C(=O)Nc2ccc(C(C)NC(=O)CNC(=O)Nc3ccc(C(=N)N)cc3)cc2)c1 (stereo not given) | 0.026 µM | 10.9 µM | > 10 µM |
| CC(NC(=O)CNC(=O)Nc1ccc(C(=N)N)cc1)c1ccc(NC(=O)C2CCNCC2)cc1 (stereo not given) | – | 68.5 µM | > 10 µM |
| CC(NC(=O)CNC(=O)Nc1ccc(C(=N)N)cc1)c1ccc(C(=O)Nc2cccc(Oc3ccccc3)c2)cc1 (stereo not given) | 0.043 µM | 11.9 µM | > 10 µM |
| CC(NC(=O)CNC(=O)Nc1ccc(C(=N)N)cc1)c1ccc(NC(=O)c2cccc(Oc3ccccc3)c2)cc1 (stereo not given) | – | 33.2 µM | > 10 µM |
| COc1cccc(COc2ccc(C(C)NC(=O)CNC(=O)Nc3ccc(C(=N)N)cc3)cc2)c1 (stereo not given) | 0.02 µM | 2.3 µM | > 10 µM |

Now from value to molecule:

| Ki [1] | Ki [2] | Ki [3] | Structure (SMILES) |
| --- | --- | --- | --- |
| – | 0.5 µM | > 10 µM | COC(=O)c1cc(C(C)NC(=O)CNC(=O)Nc2ccc(C(=N)N)cc2)ccc1OCc1ccccc1 (stereo not given) |
| 0.142 µM | 3.2 µM | > 10 µM | CC(NC(=O)CNC(=O)Nc1ccc(C(=N)N)cc1)c1ccc(N2CCOCC2)cc1 (stereo not given) |
| 0.02 µM | 12.1 µM | > 10 µM | CC(NC(=O)CNC(=O)Nc1ccc(C(=N)N)cc1)c1ccc(C(=O)Nc2ccccc2)cc1 (stereo not given) |
| 0.023 µM | 2.3 µM | > 10 µM | CC(NC(=O)CNC(=O)Nc1ccc(C(=N)N)cc1)c1ccc(OCc2cccc(Cl)c2)cc1 (stereo not given) |
| – | 3.18 µM | 6.23 µM | C[C@H](NC(=O)CNC(=O)Nc1ccc(C(=N)N)cc1)c1ccc2ccccc2c1 |
| 0.034 µM | 14.8 µM | 4.6 µM | CC(NC(=O)CNC(=O)Nc1ccc(C(=N)N)cc1)c1ccc(NC(=O)c2ccccc2)cc1 (stereo not given) |
| – | 9.8 µM | 10.7 µM | COc1ccc(Oc2ccc(C(C)NC(=O)CNC(=O)Nc3ccc(C(=N)N)cc3)cc2)cc1 (stereo not given) |
| – | – | 14.5 µM | N=C(N)c1ccc(NC(=O)NCC(=O)NCc2ccc(Cl)c(Cl)c2)cc1 |
